Results from US4218443A, “Polyether ionophores as antiobesity and hypotriglyceridemic agents” (Hoffmann-La Roche Inc., priority 1979, dated 1980).

How the values were obtained:
human pancreatic lipase = biological target: T1, human pancreatic lipase (Homo sapiens, UniProt P16233); experiment: In vitro titrimetric (Radiometer pH-stat) pancreatic lipase assay, Dixon plots; type: biochemical; settings: Dixon plots
T1 construct: Human pancreatic juice was obtained from a patient with acute pancreatitis; from tissue; host or cells: human pancreatic juice from the cannulated duct of a patient with acute pancreatitis; gift of Dr. George Nardi, Massachusetts General Hospital
T1 sequence (P16233 17-465): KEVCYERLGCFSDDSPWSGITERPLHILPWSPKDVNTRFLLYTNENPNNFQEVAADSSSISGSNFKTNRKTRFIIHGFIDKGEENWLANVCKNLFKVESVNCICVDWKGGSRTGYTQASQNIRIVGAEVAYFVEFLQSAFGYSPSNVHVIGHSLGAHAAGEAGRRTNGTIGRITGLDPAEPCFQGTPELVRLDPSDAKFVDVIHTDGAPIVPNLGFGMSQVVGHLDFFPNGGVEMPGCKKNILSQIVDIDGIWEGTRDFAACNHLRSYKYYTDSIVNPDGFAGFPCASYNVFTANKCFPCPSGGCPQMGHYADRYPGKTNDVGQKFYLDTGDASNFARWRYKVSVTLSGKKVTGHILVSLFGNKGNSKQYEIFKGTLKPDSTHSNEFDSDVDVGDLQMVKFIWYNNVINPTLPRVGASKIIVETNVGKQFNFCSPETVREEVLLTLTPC

[1] = biological target: rat epididyml lipoprotein lipase (Rattus norvegicus, UniProt Q06000); settings: read-out: I50 lipoprotein lipase; rat epididyml lipoprotein lipase in vitro
Protocol: Acetone powders of Zucker rat epididyml adipose tissue were the source of lipoprotein lipase and were prepared by the method of Garfinkel and Schotz, [A. S. Garfinkel and M. C. […] The adipose tissue was removed quickly and immediately homogenized in acetone (15 ml per gram of adipose tissue) in a Waring Blender at high speed for one minute, then filtered quickly through a coarse fritted glass funnel. The extract was washed twice with acetone (3 ml per gram of adipose tissue), then washed two more times with anhydrous ethyl ether (3 ml per gram adipose tissue). The powder was dried under vacuum for one hour, weighed and stored desiccated at -70° C. Approximately 0.013 g acetone powder was obtained per gram of epididyml adipose tissue. The lipoprotein lipase was extracted from the acetone powder into 0.05 M NH4 OH-NH4 Cl buffer, pH 8.6. The extracts were prepared by homogenizing the acetone powder in buffer in a TenBroeck glass tissue grinder in ice. The homogenate was centrifuged at 2,000×g for 20 min to remove insoluble material.
Ionophores were added to the above assays as solutions in either water or DMSO.

pancreatic lipase = biological target: T2, pancreatic lipase (Rattus norvegicus, UniProt P27657); experiment: In vitro pancreatic lipase screen ([14C]-triolein assay); type: biochemical; settings: read-out: Pancreatic Lipase Activity I50
T2 construct: stimulated to release pancreatic proteins by addition of 10^-5 M carbachol; from tissue; host or cells: pancreatic lobules of fasted Charles River female rats; released pancreatic juice, centrifuged
T2 sequence (P27657 17-465): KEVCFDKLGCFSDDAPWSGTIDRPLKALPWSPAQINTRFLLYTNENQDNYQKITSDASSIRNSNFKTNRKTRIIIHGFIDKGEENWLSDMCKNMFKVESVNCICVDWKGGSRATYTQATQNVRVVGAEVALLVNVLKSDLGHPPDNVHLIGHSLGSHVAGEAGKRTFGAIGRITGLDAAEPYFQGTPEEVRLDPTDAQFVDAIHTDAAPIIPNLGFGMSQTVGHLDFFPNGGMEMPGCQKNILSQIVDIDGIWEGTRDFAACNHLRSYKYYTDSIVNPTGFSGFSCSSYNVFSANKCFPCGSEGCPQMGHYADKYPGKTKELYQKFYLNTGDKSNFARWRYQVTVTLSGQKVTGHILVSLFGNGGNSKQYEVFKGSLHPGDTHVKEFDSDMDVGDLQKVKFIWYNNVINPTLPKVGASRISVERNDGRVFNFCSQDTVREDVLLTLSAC
Protocol: The method for assaying pacreatic lipase in vitro using [^14 C]-triolein was based on the method of Garfinkel and Schotz for lipoprotein lipase, [A. S. Garfinkel and M. C. Schotz (1972). […] Glycerol tri[1-^14 C]oleate (32 mM) was emulsified in 0.2 M Tris-HCl pH 8 containing 0.15 M NaCl, bovine serum albumin (15 mg/ml) and sodium taurocholate (1.4 mM) by sonication for three, one min intervals at 80 watts. Final assay volume was 1.0 ml. The reaction was initiated by the addition of enzyme and was allowed to proceed for 10 min. The reaction was linear for up to 20 min. The liberated free fatty acids were extracted into 0.1 M KOH and quantitated in a liquid scintillation counter using 2,5-bis-2-(5-tertbutylbenzoxazolyl)-tniophene (BBOT) scintillation fluid (Yorktown Research, South Hackensack, N.J.).
Ionophores were added to the above assay as solutions in either 90% ethanol or water, pH 8; 90% ethanol had no effect on the enzyme activity assayed by either method.

[2] = system: hepatic fatty acid synthesis; experiment: In vivo hepatic fatty acid synthesis in meal-fed rats; design: species or system Charles River rat; settings: sodium salt, mean ± SE
Protocol: In the following examples, female rats (Charles River CD strain, 180-200 g) were housed individually in wire bottom cages in a temperature (22°) and light (12 hr light and 12 hr dark) regulated room. They had free access to Purina Rodent Chow and water.

[3] = system: rats in the five day two hour meal model; experiment: Five day two hour meal model; type: in vivo, rat; settings: sodium salt, mean ± SE
Protocol: A five day two hour meal model was developed to evaluate the effects of lipase inhibitors in vivo. [^14 C]-triolein and [^3 H]cholesterol were included in the 10% corn oil meal on days one and five. Test compound was administered as a dietary admix. Compound was first mixed into the fat component of the diet before the dry components were added. Food consumption and body weight gain were determined. Feces were collected from day two to day four. Rats were killed on day five and the small intestine and contents were removed for analysis.

rat epididyml lipoprotein lipase, sequence (Q06000 28-474): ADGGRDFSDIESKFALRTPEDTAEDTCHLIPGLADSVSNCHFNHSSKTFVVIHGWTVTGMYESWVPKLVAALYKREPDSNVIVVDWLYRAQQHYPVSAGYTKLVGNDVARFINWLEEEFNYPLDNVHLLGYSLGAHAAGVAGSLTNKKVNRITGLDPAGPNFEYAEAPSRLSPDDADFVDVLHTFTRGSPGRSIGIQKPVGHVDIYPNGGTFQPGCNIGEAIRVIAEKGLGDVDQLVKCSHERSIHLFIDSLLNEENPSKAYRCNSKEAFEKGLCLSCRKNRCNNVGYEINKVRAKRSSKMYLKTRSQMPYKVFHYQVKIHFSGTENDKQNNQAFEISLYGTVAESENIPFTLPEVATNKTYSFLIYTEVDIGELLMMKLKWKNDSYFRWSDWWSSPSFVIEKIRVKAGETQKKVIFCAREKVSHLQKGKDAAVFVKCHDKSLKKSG

SMILES: CC[C@@H](C(=O)[C@@H](C)[C@@H](O)[C@H](C)CCc1c([N+](=O)[O-])cc(C)c(O)c1[N+](=O)[O-])[C@H]1O[C@](CC)([C@H]2CC[C@](O)(CC)[C@H](C)O2)C[C@@H]1C [Dinitrodescarboxylasalocid]
- type of inhibition from Dixon plots (human pancreatic lipase): suggested competitive inhibition
- Ki (human pancreatic lipase; in vitro Radiometer assay, read-out: inhibition constant (Ki)): 20 µM
- IC50 [1]: 270 µM
- IC50 (pancreatic lipase): 400 µM
- Fatty Acid Synthesis 3H2O converted ([2]; 60 mg/kg i.p.): 12.5 ± 2.1 μmoles per 1 g liver in 30 min
- Fatty Acid Synthesis [14C]alanine converted ([2]; 60 mg/kg i.p.): 208 ± 42 nmoles per 1 g liver in 30 min
- Fatty Acid Synthesis 3H2O converted ([2]; Experiment 1, 240 mg/kg p.o.): 17.1 ± 3.5 μmoles per 1 g liver per 30 mi
- Fatty Acid Synthesis [14C]alanine converted ([2]; Experiment 1, 240 mg/kg p.o.): 250 ± 87 nmoles per 1 g liver per 30 mi
- Fatty Acid Synthesis 3H2O converted ([2]; Experiment 2, 60 mg/kg p.o.): 17.0 ± 3.1 μmoles per 1 g liver per 30 mi
- Fatty Acid Synthesis [14C]alanine converted ([2]; Experiment 2, 60 mg/kg p.o.): 711 ± 130 nmoles per 1 g liver per 30 mi
- Fatty Acid Synthesis 3H2O converted ([2]; Experiment 2, 120 mg/kg p.o.): 18.7 ± 2.1 μmoles per 1 g liver per 30 mi
- Fatty Acid Synthesis [14C]alanine converted ([2]; Experiment 2, 120 mg/kg p.o.): 696 ± 80 nmoles per 1 g liver per 30 mi
- Fatty Acid Synthesis 3H2O converted ([2]; Experiment 2, 240 mg/kg p.o.): 12.6 ± 1.4 μmoles per 1 g liver per 30 mi
- Fatty Acid Synthesis [14C]alanine converted ([2]; Experiment 2, 240 mg/kg p.o.): 510 ± 64 nmoles per 1 g liver per 30 mi
- 3H-Cholesterol in Feces ([3]; 120 mg/kg dietary admix): 28.6 ± 3.9 % of ingested
- 14C in Feces ([3]; 120 mg/kg dietary admix): 2.4 ± 0.7 % of ingested
- Body weight gain (BWG) ([3]; 120 mg/kg dietary admix): -1 ± 3 g
- Fat Absorption ([3]; 120 mg/kg dietary admix): 95.6 ± 0.5%
- Intestinal Cholsterol Esters ([3]; 120 mg/kg): 7.7 ± 1.2 % of 14C-lipid
- Intestinal Contents 3H-cholesterol ([3]; 120 mg/kg): 1.7 ± 0.2 % ingested
- Intestinal Contents 14C-lipid ([3]; 120 mg/kg): 0.75 ± 0.10 % ingested
- Intestinal Free Fatty Acids ([3]; 120 mg/kg): 61.9 ± 1.3 % of 14C-lipid
- Intestinal Mono- and Diglyceride ([3]; 120 mg/kg): 15.3 ± 1.3 % of 14C-lipid
- Intestinal Triglyceride ([3]; 120 mg/kg): 9.1 ± 0.8 % of 14C-lipid
- 3H-Cholesterol in Feces ([3]; 240 mg/kg dietary admix): 34.1 ± 2.6 % of ingested
- 14C in Feces ([3]; 240 mg/kg dietary admix): 4.4 ± 0.8 % of ingested
- Body weight gain (BWG) ([3]; 240 mg/kg dietary admix): -3 ± 2 g
- Fat Absorption ([3]; 240 mg/kg dietary admix): 92.8 ± 0.7%
- Food Consumption ([3]; 240 mg/kg dietary admix): 7.2 ± 0.5 g/day
- Intestinal Cholsterol Esters ([3]; 240 mg/kg): 7.1 ± 0.8 % of 14C-lipid
- Intestinal Contents 3H-cholesterol ([3]; 240 mg/kg): 1.2 ± 0.2 % ingested
- Intestinal Contents 14C-lipid ([3]; 240 mg/kg): 0.66 ± 0.13 % ingested
- Intestinal Free Fatty Acids ([3]; 240 mg/kg): 59.6 ± 2.6 % of 14C-lipid
- Intestinal Mono- and Diglyceride ([3]; 240 mg/kg): 15.9 ± 0.9 % of 14C-lipid
- Intestinal Triglyceride ([3]; 240 mg/kg): 10.3 ± 0.7 % of 14C-lipid
